Consider 3 compounds from article PMC7177633, “Effective Cellular Transport of Ortho-Halogenated Sulfonamide Derivatives of Metformin Is Related to Improved Antiproliferative Activity and Apoptosis Induction in MCF-7 Cells” (International Journal of Molecular Sciences, 2020).

The IC50 is the concentration that gives 50% inhibition. Higher therefore signals weaker potency in that assay.

Molecules are shown by their SMILES.

The test system of one data set is MCF-7 cells. The data set is described as follows: Cell cycle analysis (PI, flow cytometry), MCF-7. The data set is classed as cell-based, human. Conditions: MCF-7, 24 h. Here is the method:
MCF-7 and MDA-MB-231 cells were seeded in 6-well plates at a density of 2 × 10^5 cells per well and cultured for 24 h under standard conditions (with 2 mL of the medium). Next, cells were exposed to the tested compounds at concentrations corresponding to IC50. After 24 h of treatment, control and treated cells were then collected (washed with cold PBS and treated with accutase), transferred to Eppendorf tubes and centrifuged (1100 rpm, 5 min, 5 °C). The supernatant was discarded, cold PBS was added (1 mL) and the cells were centrifuged (1200 rpm, 5 min). The solution was removed, and the cells were fixed in cold 70% ethanol at 4 °C. Prior to the analysis, the cells were centrifuged (3600 rpm, 5 min) and washed twice with PBS. The solution was discarded, the pellets were suspended in 200 µL of PBS and incubated with ribonuclease at 37 °C (25 µL, final concentration in a sample was 100 µg/mL) for 30 min and stained with propidine iodide (12.5 µL, final concentration in a sample was 50 µg/mL) in darkness at room temperature for additional 20 min. The final volume of the sample was 250 µL.
DNA content and the number of cells in individual cell cycle phases was measured by flow cytometry (CytoFlex, blue laser, 480 nm, Beckman-Coulter, Indianapolis, IN, USA). Cells (20,000) were analyzed from each sample. The percentage of cells in each cell cycle phase was calculated from live cells that were expressed as 100%. The data are presented as the mean ± SD of three independent experiments. The coefficients of variation for the assay were established (CV = 0.37–11.78%, depending on the cell population).
For orientation: Flow cytometry measures light scatter and fluorescence of single cells or particles in a stream.

Data set [1] has as its system OCTs. Nature of the data set: Inhibition of [14C]choline uptake in MDA-MB-231 cells (competitive inhibition assay). The data set is classed as cell-based, human. The conditions noted are these: mean ± SD (n = 3). The essentials:
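[14C]choline uptake was measured in MDA-MB-231 or MCF-7 monolayers in HBSS with 25 mM HEPES, pH 7.4. After ice-cold washes the cells were lysed in 0.1 M NaOH and radioactivity was counted by liquid scintillation, with at least three replicates per passage.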

The subject of data set [2] is OCTs. The data set is described as follows: Inhibition of [14C]choline uptake in MCF-7 cells (competitive inhibition assay). The data set is classed as cell-based, human. The conditions noted are these: mean ± SD (n = 3). As for the experimental part:
The following day, after removal of the culture medium, the cells were carefully washed with prewarmed HBSS (Hanks’ balanced salt solution) containing 125 mM NaCl, 4.8 mM KCl, 1.2 mM MgSO4, 1.2 mM KH2PO4, 1.3 mM CaCl2, 5.6 mM glucose and 25 mM HEPES (pH 7.4). […] Then, the cells were washed three times with ice-cold HBSS (500 μL) and were lysed with 250 μL of 0.1-M NaOH in the ice bath, and the lysate was mixed with 1.0 mL of an emulsifier safe cocktail (PerkinElmer, Waltham, MA, USA). The radioactivity was measured by liquid scintillation counting (MicroBeta^2 counter, PerkinElmer, Waltham, MA, USA). The studies were carried out with the use of at least three replicates from the same cell passage.

The next data set has as its system MDA-MB-231 cells. The data set is described as follows: Uptake in the presence of OCT and MATE inhibitors, MDA-MB-231 cells. Conditions: for interactions with OCT, PMAT and MATE1 transporters, MDA-MB-231: summary from uptake with inhibitors. The data set is classed as in vitro ADME, human. The gist of the method: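 Cells incubated 10 min at 37 °C in HBSS with metformin sulfonamide derivatives at 400 and 800 μmol/L plus disopyramide, cimetidine, lopinavir or methenamine as OCT/MATE/PMAT inhibitors. Intracellular compound concentration then determined by the previously described protocol.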

[3] abbreviates: IC50 (Comp. 1 13, Comp. 4 430, Comp. 7 55 μmol/L).
The mark [4] stands for this setting: compound and inhibitor 400 and 800 µmol/L, 10 min, 37 °C.

For the compound `CN(C)C(=N)N=C(N)NS(=O)(=O)c1ccccc1F` [Compound 7], in the data set on MCF-7 cells (setting [3]), the G0/G1 was 56.48 ± 3.34 %, the G2/M is recorded as 15.43 ± 0.93 %, the S is 10.34 ± 0.74 % and the “Sub G0/G1” value is listed as 17.85 ± 2.08 %. In the data set on OCTs [1], the half-inhibitory concentration (IC50) was found to be 5149 ± 22 µM. Moreover, in the data set on OCTs [2], the 50% inhibitory concentration (IC50) amounted to 6354 ± 12.9 µM. The “interactions with OCT, PMAT and MATE1 transporters, MDA-MB-231” value (“interactions with OCT” for short) in the data set with MDA-MB-231 cells was “OCT1, OCT3”.
For `CN(C)C(=N)N=C(N)NS(=O)(=O)c1ccccc1Br` [Compound 4], in the data set with MCF-7 cells (setting [3]), the G0/G1 came out at 73.69 ± 0.26 %, the G2/M amounted to 8.21 ± 0.03 %, the S is 15.16 ± 0.54 % and the “Sub G0/G1” value came to 2.98 ± 0.40%. Also, the IC50 with OCTs [1] amounted to 920 ± 13 µM. Besides, in the data set on OCTs [2], the IC50 was found to be 1670 ± 8.5 µM. For the same compound, in the data set with MDA-MB-231 cells (setting [4]), the “uptake in the presence of cimetidine, MDA-MB-231” value is given as “significantly decreased”; the “uptake in the presence of disopyramide, MDA-MB-231” value is reported as “significantly decreased”; the “uptake in the presence of lopinavir, MDA-MB-231” value is listed as “increased”. Further, the “interactions with OCT” value in the data set on MDA-MB-231 cells is given as “OCT1, OCT3, PMAT”.
Turning to `CN(C)C(=N)N=C(N)NS(=O)(=O)c1ccccc1Cl` [Compound 1], in the data set with MCF-7 cells (setting [3]), the G0/G1 is listed as 38.76 ± 0.80%, the G2/M came out at 17.54 ± 0.48 %, the S is given as 35.45 ± 0.23 % and the “Sub G0/G1” value was found to be 8.28 ± 1.04 %. The compound further registered a G0/G1 in the data set on MCF-7 cells (IC50 (Comp. 1 13, Comp. 4 430, Comp. 7 55 µmol/L), listed as Comp. 1) of 38.76 ± 0.80 %. In the data set with OCTs [1], this compound returned a half-maximal inhibitory concentration (IC50) of 2135 ± 14 µM. Further, the IC50 with OCTs [2] was found to be 1050 ± 14.2 µM. Besides, in the data set on MDA-MB-231 cells (setting [4]), the “uptake in the presence of cimetidine, MDA-MB-231” value is recorded as “No statistically significant changes”; the “uptake in the presence of disopyramide, MDA-MB-231” value is listed as “significantly higher uptake”; the “uptake in the presence of lopinavir, MDA-MB-231” value is “significantly higher uptake”; the “uptake in the presence of methenamine, MDA-MB-231” value was “No statistically significant changes”. For the same compound, the “interactions with OCT” value in the data set on MDA-MB-231 cells was “OCT1, PMAT”.
